How the values were obtained:
MCF-7 = assay: MTS cytotoxic assay, MCF-7; type: cell-based; conditions: Homo sapiens, MCF7, 72 h
Text: (§1) If not indicated otherwise, the cell lines were purchased from the American Type Culture Collection (ATCC). […] K562 is the erythroid-myeloid precursor cell line derived from chronic myeloid leukemia carrying the BCR-ABL hybrid gene. A549, MCF-7, PC-3, 5637, U-2 OS, and MiaPaCa-2 are cells derived from lung, breast, prostate, bladder carcinoma, osteosarcoma, and pancreatic adenocarcinoma, respectively. HEK 293T are transformed human embryonic kidney cells, and L929 (Sigma, St. Louis, MS, USA) are transformed mouse fibroblasts. HCT116, cells from colorectal carcinoma, and their p53 gene knock-out variant (HCT116p53-/-) were purchased from Horizon Discovery. This cell line is a model of human tumors bearing p53 loss-of-function mutations or biallelic deletion of the p53 gene, frequently associated with poor prognosis. The MRC-5 and BJ cells were used as noncancerous cells; more specifically, they are human fibroblasts from the lungs and foreskin, respectively. According to the supplier’s recommendations, all cells were cultured at 37 °C in a 5% CO2 atmosphere and 100% humidity. The culture media used were: DMEM, RPMI 1640, and MEM (according to a cell line); all were supplemented with 5 g L^−1 glucose, 10% fetal calf serum, 2 mM glutamine, 100 U mL^−1 penicillin, 100 µg mL^−1 streptomycin, and NaHCO3. Cells were passaged every two or three days using 0.25% trypsin plus 0.01% EDTA (ethylenediamine tetraacetic acid) in phosphate-buffered saline.
(§2) To evaluate compound cytotoxicity, cells were seeded in 384-well microtiter plates in a volume of […]. The next day, aliquots of the tested derivatives were transferred with Echo550 acoustic liquid handler (Labcyte) to obtain dose response curves with dilution factor 4. The experiments were performed in technical duplicates and three or more biological replicates. After 72 h of incubation in a humidified incubator, […] of the MTS/PMS stock solution were pipetted into each well. After another 1–4 h of incubation, the absorbance at 490 nm was measured using an EnVision Multilabel Plate Reader (PerkinElmer).

PC-3 = assay: MTS cytotoxic assay, PC-3; type: cell-based; conditions: Homo sapiens, PC-3, 72 h
Text: as §1, §2

U-2 OS = assay: MTS cytotoxic assay, U-2 OS; type: cell-based; conditions: Homo sapiens, U2OS, 72 h
Text: as §1, §2

CCRF-CEM cells [1] = assay: Cell cycle arrest and cell death analysis by flow cytometry (propidium iodide, pH3Ser10); type: cell-based, human; conditions: % of positive cells
Description: Together with the CG-treated cells, a vehicle-treated sample was harvested at the same time point. After 24 h, the cells were washed with cold phosphate-buffered saline, fixed dropwise in 70% ethanol, and stored overnight at −20 °C. The cells were then washed with hypotonic citrate buffer, treated with RNAse (50 µg mL^−1), and stained with propidium iodide. Flow cytometry using a 488 nm laser (FACS-Calibur, Becton Dickinson, NJ, USA) was used for measurement. The cell cycle was analyzed by the ModFitLT program (Verity), and apoptosis was measured in a logarithmic model expressing the percentage of particles with a lower propidium content than cells in the G0/G1 phase (<G1) of the cell cycle in the CellQuest program (Becton Dickinson). Half of the sample was used to label cells with pH3^Ser10-FITC antibody (Exbio) for subsequent flow cytometry analysis of mitotic cells.

MiaPaCa-2 = assay: MTS cytotoxic assay, MiaPaCa-2; type: cell-based; conditions: Homo sapiens, MIA PaCa-2, 72 h
Text: as §1, §2

HCT116 = assay: MTS cytotoxic assay, HCT116; type: cell-based; conditions: Homo sapiens, HCT-116, 72 h
Text: as §1, §2

MRC-5 = assay: MTS cytotoxic assay, MRC-5; type: cell-based; conditions: Homo sapiens, MRC5, 72 h
Text: as §1, §2

HEK 293T = assay: MTS cytotoxic assay, HEK 293T; type: cell-based; conditions: Homo sapiens, HEK-293T, 72 h
Text: as §1, §2

L929 = assay: MTS cytotoxic assay, L929; type: cell-based, mouse; conditions: Mus musculus, L929, 72 h
Text: as §1, §2

A549 = assay: MTS cytotoxic assay, A549; type: cell-based; conditions: Homo sapiens, A549, 72 h
Text: as §1, §2

CCRF-CEM cells [2] = assay: BrU incorporation analysis (RNA synthesis); type: cell-based, human; conditions: % of positive cells
Description: The cells were cultured and processed as described above. Before harvesting, the cells were pulse-labeled with 1 mM of 5-bromouridine (BrU) for 30 min. The cells were then fixed in 1% buffered paraformaldehyde with 0.05% NP-40 at room temperature for 15 min, and then stored at 4 °C overnight. Before measurement, they were washed with 1% glycine in PBS, washed again with PBS, and stained with primary anti-BrdU antibody cross-reactive to BrU (Exbio) for 30 min at room temperature in the dark. From this point on, the experiment was performed exactly as in the method described above.

CCRF-CEM = assay: MTS cytotoxic assay, CCRF-CEM; type: cell-based; conditions: Homo sapiens, 72 h
Text: as §1, §2

5637 = assay: MTS cytotoxic assay, 5637; type: cell-based; conditions: Homo sapiens, 72 h
Text: as §1, §2

CCRF-CEM cells [3] = assay: BrDU incorporation analysis (DNA synthesis); type: cell-based, human; conditions: % of positive cells
Description: The cells were cultured in the same way as the cell cycle analysis method. Just before harvesting, 5-bromo-2′-deoxyuridine (BrDU) of 10 µM concentration was added to the cells for pulse-labeling for 30 min. Then, the cells were fixed with −20 °C cold 70% ethanol and stored in a freezer for 16 h. Before antibody staining, the samples were incubated on ice for 30 min, washed once with phosphate-buffered saline (PBS), and re-suspended in 2 M of HCl for 30 min at room temperature to hydrolyze their DNA. After neutralization with 0.1 M of Na2B4O7 (borax) solution, the cells were washed with PBS containing 0.5% Tween-20 and 1% BSA. This was followed by staining with the primary anti-BrDU antibody (Exbio) for 30 min at room temperature. Then, the cells were washed with PBS and stained with a secondary anti-mouse antibody conjugated to fluorescein isothiocyanate (Merck-Sigma, St. Louis, MS, USA) at room temperature in the dark. After another washing with PBS and incubation with propidium iodide (0.1 mg·mL^−1) and RNAse A (0.5 mg·mL^−1) for 1 h at room temperature in the dark, the cells were analyzed by flow cytometry using a 488 nm laser (FACSCalibur, Becton Dickinson, Franklin Lakes, NJ, USA).

Question: Which IC50 (MCF-7) does the source give for `C[C@H]1O[C@@H](O[C@H]2[C@@H](O)C[C@H](O[C@H]3[C@@H](O)C[C@H](O[C@H]4CC[C@@]5(C)[C@H](CC[C@@H]6[C@@H]5CC[C@]5(C)[C@@H](C7=CC(=O)OC7)CC[C@]65O)C4)O[C@@H]3C)O[C@@H]2C)C[C@H](O)[C@@H]1O` [Dg, digitoxin] here?
Answer: Its IC50 is 78 ± 1.1 nM.

Question: And the IC50 (PC-3)?
Answer: The IC50 was 69 ± 2.2 nM.

Question: What about the IC50 (U-2 OS) of the same compound?
Answer: Its IC50 is 45 ± 2.1 nM.

Question: What about the “< G1 (apoptotic cells)” value (CCRF-CEM cells [1]; 1 × IC50, 24 h) of the same compound?
Answer: The value was 7.56%.

Question: And the G0/G1 (CCRF-CEM cells [1]; 1 × IC50, 24 h)?
Answer: Its G0/G1 is 33.21%.

Question: What about the G2/M (CCRF-CEM cells [1]; 1 × IC50, 24 h) of the same compound?
Answer: Its G2/M is 30.51%.

Question: What about the “M (Phospho-Histone3 (Ser10))” value (CCRF-CEM cells [1]; 1 × IC50, 24 h) of the same compound?
Answer: The value was 1.97%.

Question: And the S (CCRF-CEM cells [1]; 1 × IC50, 24 h)?
Answer: The S was 36.28%.

Question: And the “< G1 (apoptotic cells)” value (CCRF-CEM cells [1]; 5 × IC50, 24 h)?
Answer: The value was 10.35%.

Question: And the G0/G1 (CCRF-CEM cells [1]; 5 × IC50, 24 h)?
Answer: The G0/G1 was 33.71%.

Question: What about the G2/M (CCRF-CEM cells [1]; 5 × IC50, 24 h) of the same compound?
Answer: The G2/M was 44.03%.

Question: And the “M (Phospho-Histone3 (Ser10))” value (CCRF-CEM cells [1]; 5 × IC50, 24 h)?
Answer: Its value is 1.28%.

Question: And the S (CCRF-CEM cells [1]; 5 × IC50, 24 h)?
Answer: The S was 22.26%.

Question: And the IC50 (MiaPaCa-2)?
Answer: Its IC50 is 79 ± 2.8 nM.

Question: What about the IC50 (HCT116) of the same compound?
Answer: The IC50 was 20 ± 1.5 nM.

Question: And the IC50 (MRC-5)?
Answer: The IC50 was 78 ± 1.9 nM.

Question: What about the IC50 (HEK 293T) of the same compound?
Answer: Its IC50 is 69 ± 2.1 nM.

Question: What about the IC50 (L929) of the same compound?
Answer: Its IC50 is > 10000 nM.

Question: What about the IC50 (A549) of the same compound?
Answer: Its IC50 is 19 ± 2 nM.

Question: What about the BrU (CCRF-CEM cells [2]; 1 × IC50, 24 h) of the same compound?
Answer: Its BrU is 42.99%.

Question: What about the BrU (CCRF-CEM cells [2]; 5 × IC50, 24 h) of the same compound?
Answer: The BrU was 3.88%.

Question: And the IC50 (CCRF-CEM)?
Answer: Its IC50 is 20 ± 3.5 nM.

Question: What about the IC50 5637 of the same compound?
Answer: Its IC50 is 58 ± 1.6 nM.

Question: And the BrDU (CCRF-CEM cells [3]; 1 × IC50, 24 h)?
Answer: The BrDU was 35.91%.

Question: And the BrDU (CCRF-CEM cells [3]; 5 × IC50, 24 h)?
Answer: The BrDU was 23.52%.

Reference: publication PMC7827417, “Steroid Glycosides Hyrcanoside and Deglucohyrcanoside: On Isolation, Structural Identification, and Anticancer Activity” (Foods, 2021)
